Data from US20250313555A1, “2-SUBSTITUTED THIAZOLE AND BENZOTHIAZOLE COMPOSITIONS AND METHODS AS DUX4 INHIBITORS” (ALTAY THERAPEUTICS, INC., priority 2022, published 2025).

Assays:
Assay type in all cases: cell-based
[1] = Cell cytotoxicity 50 assay (CC50), HEK cells; conditions: human
Method in brief: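 CC50 was fitted from total luminescence, measured 5 min after adding CellTiter-Glo reagent to HEK cells. The cells had been exposed for 72 h at 37 °C to medium serial dilutions prepared from a 10 mM drug solution.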

DUX4 = molecular target: T1, DUX4 (Homo sapiens, UniProt Q9UBX2); assay: DUX4 EC50 luciferase reporter protocol in transfected HEK293 cells; conditions: 6 hr
T1 construct: expressed in transfected cells; host or cells: HEK293
From the text: EC50 Protocol This example provides a representative protocol for a single well of a 96-well plate. It can be scaled up as necessary for treatment of multiple wells. For negative controls, a well containing reporter DNA, Renilla DNA, and turbofect (without expression vector) were used. For positive controls, wells containing cells that were not treated with any inhibitor were used. They were transfected with the complete DNA lipid complex as set forth below. The DNA-lipid complex for one well of the 96-well plate is prepared by adding to a tube 100 ng of the transfection factor (TF) expression vector, 100 ng of TF reporter DNA, 10 ng of Renilla reporter DNA, […] Turbofect transfection reagent, and […] of the medium without any serum or penicillin/streptomycin. The combination was mixed by gentle flicking of the tube, and the mixture was pipetted into a well of a 96-well plate. The plate was then gently tapped to spread the combination evenly on the bottom of the well. The well was incubated for 30 min. HEK293 cells were grown until 80% confluent in DMEM supplemented with 10% fetal bovine serum, 1% penicillin streptomycin, and 1% amphotericin B. The adherent cells growing on a 10 cm plate were trypsinized with 1 mL of prewarmed trypsin. Once the cells detached from the plate, 10 mL of medium was added, and the cells were strained through a […] cell strainer. The cells were counted using a mixture of 10 mL cell suspension with 10 mL of trypan blue. Once the total number of cells are counted, a dilution of 150 k/mL was prepared. After incubation of the transfection complex was complete, […] of HEK293s (23.25 k total cells) were gently dispensed on top of the wells containing the 25 mL transfection complex, producing a total volume of about 180 mL. The mixture was then incubated for 24 h. To treat cells with each inhibitor, the inhibitors were prepared in the same growth medium. In a deep well block, the regular medium with serum was added to well 1 (135 mL) and to wells 2 through 10 (100 mL). To the first well was added 15 mL of 10 nM inhibitor. The final concentration of the drug in well 1 was 1 nM. The wells were pipeted up and down, and 50 mL was transferred from well 1 to well 2 (1/3 dilution). The well was mixed, and the seriation dilution was repeated with the remaining wells. Once the serial dilution was complete, using a multichannel pipet, 20 mL of each inhibitor were transferred to designated wells in a 96-well plate. […] Before the assay, a sufficient amount of 1× passive lysis buffer was prepared. The luciferase substrate buffer (Promega) was thawed completely and then mixed with the lyophilized luciferase substrate. The stop buffer (Promega) was also completely thawed. (1) Cell lysis: After treatment of the cells was complete, all the cell media is removed by flipping the 96-well plate over and tapping it dry on a dry paper towel. Immediately afterwards, the 1× passive lysis buffer (25 μL) was added. The plates were then placed on a rocker for 15 minutes at medium speed. (2)Measuring luciferase signal: The luciferase substrate solution for all wells was placed in a solution basin. The luciferase substrate solution was then added to every well (100 μL/well) using a multichannel pipette. The total luminescence was then read immediately using a plate reader. (3)Measuring Renilla signal: The “complete stop solution” was prepared in a solution basin by mixing the buffer with the 50× stop solution substrate (Promega) to make the final 1× solution. The complete stop solution was added to each well (50 μL/well) using a multichannel pipette. The total luminescence was then read immediately using a plate reader. Using a spreadsheet (e.g., Excel), the luciferase signal was divided by the renilla signal to get a relative luciferase unit.

[2] = Cell cytotoxicity 50 assay (CC50), MB200 cells, cell titer glo; conditions: human
Method in brief: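 Luminescence from CellTiter-Glo after 72 h of compound exposure at 37 °C gave the CC50 for MB200 cells. These were plated at 10 k cells/well in triplicate in supplemented F10 medium and treated with a serial dilution series prepared from a 10 mM stock.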

MBD3L2 RNA = assay: RNA isolation and qPCR to determine MBD3L2 RNA levels in FSHD cells; conditions: 48 hrs
Method: Protocol for RNA Isolation and qPCR to Determine MBD3L2 RNA Levels The protocol describes the process of isolating RNA from cultured cells, converting the RNA to complementary DNA (cDNA), and measuring target gene expression using a quantitative polymerase chain reaction (qPCR). The seed FSHD cells were dispensed into a six-well dish. One day after seeding, the DUX4 inhibitor (11 μM or 3.6 μM/well) was added to the cells. After another 48 hrs, the old media was removed from the cells. The cells were washed with 2 mL of warm phosphate buffered saline (PBS). The PBS was aspirated, and the cells were lysed in each well with 350 μL of RLT buffer+3.5 μL of beta-mercaptoethanol (BME). The lysates were added to fresh, RNAse-free, labeled Eppendorf tubes. The cells were then physically disrupted for […] at level 4 of the bead disrupter to ensure the release of the RNA. The RNA was collected according to standard procedures (i.e., Qiagen kit instructions) as discussed below. The RNA concentrations were standardized to […]. In a PCR tube, RNA (2 μg) in a new Eppendorf tube was diluted with RNase-free water to a 9.5 μL final volume of […] RNA. DNase was used to remove any DNA contamination. A DNase Master Mix was prepared from 1.5 μL/reaction DNase solution (1 unit/μL, Promega), 3 μL/reaction 5× RT buffer (i.e., 250 mM Tris-HCl (pH 8.3), 375 mM KCl, 15 mM MgCl2, and 500 μl 0.1 M DTT; Promega MMLV), and 1 μL/reaction RNase inhibitor solution (RNasin, 40 units/μL, Promega). The DNase Master Mix was added to the standardized RNA samples (5.5 μL/sample). The samples were mixed by agitation and briefly spun down by centrifuge. The samples were heated to 37° C. for 60 min, 80° C. for 5 min, and then cooled to 4° C. The samples were stored on ice until the addition of the next reagents. An RT Reaction Master Mix was prepared from 5 μL/reaction 5× RT buffer, 2 μL/reaction dNTP solution (2.5 mM in each nucleotide), 1 μL/reaction RNase inhibitor solution (RNasin, 40 units/μL, Promega), 1.6 μL/reaction M-MLV reverse transcriptase (200 units/μL, Promega), and 13.4 μL/reaction deionized, RNase-free water. The RT Reaction Master Mix was cooled on ice until use. A 50 μM solution of Random Primer 6 random hexanucleotides (2 μL) was added to each sample. The samples were mixed by agitation and briefly spun down by centrifuge. The samples were heated to 70° C. for 5 min and then cooled to 4° C. The RT Reaction Master Mix (23 μL) was added to each sample. The samples were mixed by agitation and briefly spun down by centrifuge. To convert the RNA to cDNA, the samples were heated to 42° C. for 60 min, 95° C. for 5 min, and then cooled to 4° C. The cDNA product mixture was diluted 5:1 with deionized water (40 μL+160 μL). The samples were run in triplicate, with a methyl-CpG-binding protein 3-like 2 (MBD3L2) target primer and a eukaryotic translation elongation factor 1-alpha (EEF1A) control primer. An qPCR Master Mix was prepared for each primer and stored on ice (4° C.) until use. The qPCR Master Mix included 10 μL/reaction SYBR Green Mix (2×) (ThermoFisher), 1 μL/reaction of the primer mix (i.e., the MBD3L2 PCR Primer mix or the EEF1A Primer mix), and 4 μL/reaction deionized, RNase-free water. To set up the qPCR plate, 15 μL of the appropriate qPCR Master Mix was added to the appropriate wells for each target/primer. After all the targets/primers have been added to the wells, 5 μL of the sample was added to the corresponding wells so that each well is 20 μL total. The plate was covered with a clear sheet. An qPCR run was set up (QuantStudio 5) with the following cycle: […]

T1 sequence (Q9UBX2 whole entry): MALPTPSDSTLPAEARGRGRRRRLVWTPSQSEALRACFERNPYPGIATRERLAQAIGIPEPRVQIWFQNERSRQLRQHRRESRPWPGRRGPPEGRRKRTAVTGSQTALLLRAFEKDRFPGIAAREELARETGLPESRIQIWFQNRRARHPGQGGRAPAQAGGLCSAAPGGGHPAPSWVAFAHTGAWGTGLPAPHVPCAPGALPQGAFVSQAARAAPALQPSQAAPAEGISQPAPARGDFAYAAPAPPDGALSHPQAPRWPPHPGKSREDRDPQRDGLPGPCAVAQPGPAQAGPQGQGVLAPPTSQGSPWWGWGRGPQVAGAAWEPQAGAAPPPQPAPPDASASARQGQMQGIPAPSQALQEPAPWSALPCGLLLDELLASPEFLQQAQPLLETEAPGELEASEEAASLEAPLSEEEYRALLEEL

Row | Structure (SMILES) | CC50 at 72 h [1] | EC50 (DUX4) | CC50 at 72 h [2] | qPCR MBD3L2 Inhib at 11 µM (MBD3L2 RNA)
1 | CC(=O)NCCCNC(=O)[C@@H]1CC[C@H](c2nc3ccccc3s2)C1 [Compound 165] | > 10 µM | > 10 µM | > 10 µM | –
2 | CC(=O)NCCCC(=O)Nc1coc(-c2nccs2)c1 [Compound 79] | > 10 µM | > 10 µM | > 10 µM | –
3 | O=C(CCN1C(=O)CCC1=O)Nc1ccc(-c2ccc3ncsc3c2)cc1 [Compound 43] | > 10 µM | > 10 µM | > 10 µM | –
4 | O=C(CCC(=O)c1cccs1)Nc1ccc(-c2nc3ccccc3s2)cc1 [Compound 25] | > 10 µM | > 10 µM | > 10 µM | –
5 | CC(=O)NCCNC(=O)Cc1ccc(-c2nc3cc(F)ccc3s2)cc1 [Compound 111] | > 10 µM | – | > 10 µM | YES
6 | CC(C)C(=O)NCCCC(=O)Nc1ccc(-c2nc3ccccc3s2)cc1 [Compound 31] | > 10 µM | – | > 10 µM | YES
7 | O=C(CCc1cnco1)Nc1ccc(-c2nc3ccccc3s2)cc1 [Compound 33] | > 10 µM | – | > 10 µM | YES
8 | O=C(CCCN1C(=O)CCC1=O)Nc1ccc(-c2nc3ccccc3s2)cc1 [Compound 41] | > 10 µM | – | > 10 µM | YES
9 | CCC(=O)NCCCC(=O)Nc1ccc(-c2nc3ccccc3s2)cc1 [Compound 10] | > 10 µM | – | > 10 µM | YES
10 | O=C(CCCN1CCCC1=O)NCc1ccc(-c2nc3ccccc3s2)cc1 [Compound 109] | > 10 µM | – | > 10 µM | YES
11 | O=C(CCCc1cccnc1)Nc1ccc(-c2nc3ccccc3s2)nc1 [Compound 156] | > 10 µM | – | > 10 µM | YES
12 | O=C(CCCCN1C(=O)CCC1=O)Nc1ccc(-c2nc3ccccc3s2)o1 [Compound 167] | > 10 µM | – | > 10 µM | YES
13 | O=C(CCc1nnc[nH]1)Nc1ccc(-c2nc3ccccc3s2)cc1 [Compound 39] | > 10 µM | – | > 10 µM | YES
14 | CC(=O)NCCCC(=O)Nc1ccc(CCc2nc3ccccc3s2)cc1 [Compound 174] | > 10 µM | – | > 10 µM | YES
15 | CC(=O)NCCCCC(=O)Nc1ccc(-c2nc3ccccc3s2)o1 [Compound 175] | > 10 µM | – | > 10 µM | YES
16 | O=C(CCc1cccnc1)Nc1ccc(-c2nc3ccccc3s2)nc1 [Compound 83] | > 10 µM | – | > 10 µM | YES
17 | CC(=O)NCCC(=O)Nc1ccc(-c2nc3cc(C#N)ccc3s2)cc1 [Compound 103] | > 10 µM | – | > 10 µM | YES
18 | O=C(CCc1cnco1)Nc1ccc(-c2nc3cc(F)ccc3s2)cc1 [Compound 65] | > 10 µM | – | > 10 µM | YES
19 | CC(=O)NCCCCC(=O)Nc1ccc(-c2nc3ccccc3s2)cc1 [Compound 73] | > 10 µM | – | > 10 µM | YES
20 | O=C(CCc1cnc[nH]1)Nc1ccc(-c2nc3ccccc3s2)cc1 [Compound 14] | > 10 µM | – | > 10 µM | YES
21 | O=C(CCN1C(=O)CCC1=O)Nc1ccc(-c2nc3ccccc3s2)cc1 [Compound 1] | > 10 µM | – | 1 to 10 µM | YES
22 | O=C(CCCc1cccnc1)Nc1ccc(Cc2nc3ccccc3s2)cc1 [Compound 60] | > 10 µM | – | > 10 µM | YES
